Results on one molecule are retold here after patent publication US20150328191A1, “USE OF PIDOTIMOD TO TREAT PSORIASIS” (POLICHEM S.A., priority 2012, published 2015).

The structures appear in SMILES notation. Peptide text beside a SMILES is read from it.

This data set relates to psoriatic patients (mild psoriasis). As to the kind of experiment: Evaluation of pidotimod in psoriatic patients by PASI evaluation; safety also evaluated. It counts as in vivo, human. Conditions: 800 mg daily oral, 12 weeks. The protocol:
An evaluation of the activity of pidotimod was tested on psoriatic patients, in order to assess the efficacy in terms of improvement of the pathology by means of PASI evaluation. The safety of the treatment was also evaluated. The study was performed in 5 patients (3 males and 2 females, aged between 31-53, mean=42) with a clinical diagnosis of mild psoriasis of at least 6 months. […] The body surface area involvement at the baseline was ≦10% with a PASI value ≦10.
The study product was taken with the composition of the Example 6 at a dosage of two oral vials daily, i.e. 800 mg daily of the active ingredient, taken far from mealtimes.
During the trial, the following visits were performed: • baseline—T0 (before the product use) • intermediate visit—T6 (after 6 weeks of treatment) • final visit—T12 (after 12 weeks of treatment)
No relevant event, which may have interfered to the test results, occurred during the study period.
The efficacy of the product was expressed by mean of values of PASI evaluation, assessing the PASI at the baseline and at the intermediate visit and the final one.

As to `O=C1CC[C@@H](C(=O)N2CSC[C@H]2C(=O)O)N1` [pidotimod, (4R)-3-(5-oxo-L-prolyl)-1,3-thiazolidine-4-carboxylic acid] (HELM PEPTIDE1{[Glp].[O=C(O)[C@@H]1CSCN1[*:1]]}$$$$V2.0), under “5 patients”, the Side effects entry was “no side effects were reported” and the “Tolerability of the treatment” value is recorded as “very well tolerated”. Also, under “5 patients, statistically significant decrease”, the “Student t test p for decrease of the PASI value at T12 (end of treatment) vs. T0 (baseline)” value was < 0.05. In addition, the “Improvement in the clinical evidences of the illness” value (all 5 patients) is given as “important improvement”.
